Results: patent US12599608B2, “Methods for treating cardiac valve disease” (The Regents of the University of California, priority 2018, dated 2026)

Key:
N1^+/− ECs = assay: Validation trials of screen candidates by targeted RNA-seq with the trained KNN algorithm; type: cell-based, human; conditions: duplicate or triplicate; one or more replicates classified as WT
Experimental: Starting on day 15 of differentiation, WT ECs were exposed to 10 μM DMSO (dimethyl sulfoxide) (n=80) while isogenic N1^+/− ECs were exposed to either 10 μM DMSO (n=80) or one of the small molecules from the LOPAC (1280 molecules) (Sigma LO1280) or Sheng Ding (315 molecules) chemical libraries. DMSO or small molecules were renewed with EC media (ScienCell #1001) changes on alternating days until the cells were ultimately collected for analysis on day 21. ECs were imaged using the IN Cell Analyzer on day 21 to evaluate morphology and cell death; wells with extensive cell death were eliminated from final analyses. For validation experiments, promising small molecules identified from the initial screen were applied to N1^+/− ECs in duplicate or triplicate along with controls of DMSO-exposed WT and N1^+/− ECs (n=4 each) using the same process as the initial screen described above.
ECs were lysed and RNA was isolated using the Qiagen RNeasy 96-well purification kit. RNA was diluted so that it was between the 10 pg-1 ng range accepted by the Cellular Research Precise targeted RNA-seq (RNA sequencing) system. Targeted RNA-seq libraries were prepared as per the Cellular Research Precise protocol (Rev 03092015), which includes both molecule and sample barcoding. The selected 119 target genes (see Table 1) included 3 low-expressing housekeeping genes for normalization (CHMP2A, C1orf43, REEP5) and either predicted central regulatory nodes or peripheral genes positioned within varied regions of the N1 network to permit identification of small molecules that affected central nodes as well as those that may have a synergistic effect in combination due to regulating different aspects of the network. Briefly, RNA was added to the Precise Encoding Plate containing indexed dT primer, dNTPs, and Spike-in mRNA controls and incubated at 65° C. for 3 minutes followed by cooling on ice. A master-mix of RT enzyme, RNase inhibitor, and buffer was then added to the samples, and they were incubated at 42° C. for 30 minutes followed by 80° C. for 5 minutes. Each plate of samples was combined into a single 2 ml tube and purified with AMPureXP beads. N1 PCR master-mix was added and samples were incubated for 94° C. for 2 minutes, followed by 15 cycles of 94° C. for 30 seconds, 55° C. for 3 minutes, and 68° C. for 1 minute, followed by 68° C. for 7 minutes. Samples were purified with AMPureXP beads and N2 PCR master-mix was added. Samples were incubated with the same thermal cycler program as above for 12 cycles. These final libraries were then purified with AMPureXP beads and analyzed for quality and concentration by Agilent Bioanalyzer and Illumina Library Quantification Kit (KAPA Biosystems), respectively. Libraries were normalized to equivalent concentration and pooled for paired-end 100 bp sequencing on an Illumina HiSeq 2500 instrument.
Sequencing data was analyzed using Cellular Research Precise Analysis Pipeline on the SevenBridges platform, which included analyzing sequencing quality with FASTQC, trimming adapters and filtering reads, demultiplexing based on sample barcodes, aligning reads with Bowtie 2, and determining the number of unique molecular indices per gene. Network inference was based on mutual information of gene expression from all DMSO- and small molecule-exposed samples as described in Margolin et al., BMC Bioinformatics. 2006; 7 Suppl 1:S7. Network diagram was generated using NetworkX (Hagberg et al., Exploring Network Structure, Dynamics, and Function using NetworkX. SciPy. 2008) based on network connections inferred from the small molecule screen data as described above with colors based on whole transcriptome RNA-seq gene expression of isogenic N1^+/− compared to WT ECs.
Promising small molecules were identified using either K-nearest neighbor (KNN) or hierarchical clustering algorithms. […]

N1^+/−/mTR^G2 mice [1] = assay: In vivo small molecule treatment, staining of AV calcification with Alizarin Red; conditions: for reduction of the extent of calcification / reduction of the number of mice that developed calcification: compared to DMSO-treated mice, Alizarin red; for reduction of the extent of calcification: TG003 n=2, p=0.09, XCT790 single calcified mouse, not statistically significant; for reduction of the number of mice that developed calcification: TG003 p=0.09, XCT790 not statistically significant; for number of mice with calcified AVs by Alizarin red staining: four weeks of treatment from fourth postnatal week, DMSO 14 of 86; for AV calcification, overall conclusion: summary statement
Experimental: (§1) Protocols were reviewed/approved by UCSF Institutional Animal Care and Use Committee, San Francisco, CA. N1^+/− and mTR^het C57Bl6 mice (purchased from Jackson Labs: #002797 and #004132, respectively) were used to generate double mutant animals. Breedings were performed as previously described (Theodoris et al., The Journal of Clinical Investigation. 2017; 127:1683) to generate N1^+/−/[…] mice. Mice were treated with XCT790 (5 mg/kg/day), TG003 (0.3 mg/kg/day or 2 mg/kg/day, results pooled for analysis), Fmoc-leu (0.6 mg/kg/day), GSK837149A (4.5 mg/kg/day), biperiden (10 mg/kg/day), CB1954 (15 mg/kg/day), putrescine (0.26 mg/kg/day), naloxone (25 mg/kg/day), all by intraperitoneal injection, and RO4929097 (60 mg/kg/day) by oral gavage, or equivalent volume of solvent (DMSO or saline) for four weeks starting at the fourth postnatal week.
Hearts were fixed by perfusion fixation under anesthesia using isofluorane by ventricular KCl injection followed by PBS wash and fixation with 4% paraformaldehyde. Hearts were then incubated in 10% formalin overnight. The cardiac apex was cut parallel to the aortic root, and the heart tissue was then paraffin processed using standard protocols and embedded with the cut surface down. The resulting paraffin block was trimmed and angled to obtain a full three-leaflet view of the aortic root. The root was serially sectioned at […] intervals from the base of the aortic sinus and mounted on slides. The slides were then deparaffinized, and calcification was stained with 2% Alizarin Red (pH 4.1-4.3) as previously described (Theodoris et al., The Journal of Clinical Investigation. 2017; 127:1683).

N1^+/−/mTR^G2 mice [2] = assay: In vivo small molecule treatment, AV and PV peak velocity by echocardiography; conditions: XCT790 5 mg/kg/day i.p., TG003 0.3 or 2 mg/kg/day i.p. pooled; for AV stenosis by echocardiography: AV peak velocity versus DMSO; for PV stenosis by echocardiography: PV peak velocity versus DMSO
Experimental: as §1
Echocardiography was performed under isofluorane anesthesia with standard measurement techniques using the Vevo 770 Imaging System (VisualSonics) equipped with an RMV-707B transducer with central frequency of 30 MHz. Peak blood flow velocity through AVs and PVs was obtained by pulsed wave Doppler in the modified parasternal long and short axis views. The average of three cardiac cycles was used for each measurement.

Row | SMILES | KNN classification of treated N1^+/− ECs in validation trials (N1^+/− ECs) | reduction of the extent of calcification (N1^+/−/mTR^G2 mice [1]) [%] | reduction of the number of mice that developed calcification (N1^+/−/mTR^G2 mice [1]) [%] | number of mice with calcified AVs by Alizarin red staining (N1^+/−/mTR^G2 mice [1]) | AV calcification, overall conclusion (N1^+/−/mTR^G2 mice [1]) | AV stenosis by echocardiography (N1^+/−/mTR^G2 mice [2]) | PV stenosis by echocardiography (N1^+/−/mTR^G2 mice [2])
1 | CCN1/C(=C/C(C)=O)Sc2ccc(OC)cc21 [TG003, (Z)-1-(3-ethyl-5-methoxy-2,3-dihydrobenzothiazol-2-ylidene)propan-2-one] | classified as WT | 80 | 68 | 2 of 38 | showed a trend of reducing AV calcification | did not significantly impact | did not significantly impact
2 | COc1cc(/C=C(\C#N)C(=O)Nc2nnc(C(F)(F)F)s2)ccc1OCc1ccc(C(F)(F)F)cc1C(F)(F)F [XCT790, 2E-3-(4-{[2,4-bis(trifluoromethyl)benzyl]oxy}-3-methoxyphenyl)-2-cyano-N-[5-(trifluoromethyl)-1,3,4-thiadiazol-2-yl]acrylamide] | classified as WT | 99 | 64 | 1 of 17 | showed a trend of reducing AV calcification | showed a trend of reducing AV stenosis | sufficient to prevent PV stenosis
